From ChEMBL document CHEMBL4622864, “Synthesis and biological evaluation of quinoxaline derivatives as specific c-Met kinase inhibitors” (Bioorg Med Chem Lett, 2020)

Experiments:
[1] = system: MKN-45; assay: Antiproliferative activity against human MKN45 cells overexpressing c-MET assessed as reduction in cell proliferation; assay type: functional, cell-based
[2] = target: T1, Hepatocyte growth factor receptor (Homo sapiens, UniProt P08581); assay: Inhibition of c-Met (unknown origin) by ADP-Glo kinase assay
T1 sequence (P08581 whole entry): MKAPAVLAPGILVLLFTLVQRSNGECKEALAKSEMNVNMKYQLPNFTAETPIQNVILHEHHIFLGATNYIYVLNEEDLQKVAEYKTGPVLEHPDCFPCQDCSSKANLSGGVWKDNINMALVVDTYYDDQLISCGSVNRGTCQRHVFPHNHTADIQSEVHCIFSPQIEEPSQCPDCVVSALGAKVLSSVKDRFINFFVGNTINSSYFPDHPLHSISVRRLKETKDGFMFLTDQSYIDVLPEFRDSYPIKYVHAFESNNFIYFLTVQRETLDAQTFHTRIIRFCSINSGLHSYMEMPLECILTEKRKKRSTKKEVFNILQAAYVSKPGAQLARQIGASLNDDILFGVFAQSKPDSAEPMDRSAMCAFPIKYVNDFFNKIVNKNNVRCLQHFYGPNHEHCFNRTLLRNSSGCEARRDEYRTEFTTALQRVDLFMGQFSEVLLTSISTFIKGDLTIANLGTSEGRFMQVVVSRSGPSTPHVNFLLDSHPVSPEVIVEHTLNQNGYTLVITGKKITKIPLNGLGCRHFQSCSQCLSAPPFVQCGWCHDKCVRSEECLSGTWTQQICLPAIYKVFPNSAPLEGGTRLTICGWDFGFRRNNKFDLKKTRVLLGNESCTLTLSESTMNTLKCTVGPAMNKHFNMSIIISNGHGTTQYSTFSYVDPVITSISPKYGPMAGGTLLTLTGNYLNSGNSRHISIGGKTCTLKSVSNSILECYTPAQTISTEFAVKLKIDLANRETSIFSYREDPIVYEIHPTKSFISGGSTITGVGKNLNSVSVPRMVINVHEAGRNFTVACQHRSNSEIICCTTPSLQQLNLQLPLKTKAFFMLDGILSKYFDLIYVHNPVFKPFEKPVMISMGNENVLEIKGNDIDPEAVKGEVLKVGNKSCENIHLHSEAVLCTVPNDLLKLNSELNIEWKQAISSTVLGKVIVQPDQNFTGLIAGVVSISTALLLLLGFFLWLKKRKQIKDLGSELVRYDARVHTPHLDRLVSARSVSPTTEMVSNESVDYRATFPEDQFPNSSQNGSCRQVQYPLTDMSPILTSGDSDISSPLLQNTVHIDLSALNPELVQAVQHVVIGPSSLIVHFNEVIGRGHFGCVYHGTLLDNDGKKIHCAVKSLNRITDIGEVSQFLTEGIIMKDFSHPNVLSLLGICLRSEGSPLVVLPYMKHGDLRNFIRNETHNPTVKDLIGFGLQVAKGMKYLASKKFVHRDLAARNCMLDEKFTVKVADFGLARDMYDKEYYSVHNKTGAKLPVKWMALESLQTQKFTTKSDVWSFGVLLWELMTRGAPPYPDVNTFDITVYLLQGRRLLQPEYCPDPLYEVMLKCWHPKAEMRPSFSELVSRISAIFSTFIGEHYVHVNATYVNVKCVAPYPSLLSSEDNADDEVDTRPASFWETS

[3] = target: Angiopoietin-1 receptor (Homo sapiens) (UniProt Q02763); assay: Inhibition of human TIE2 at 100 nM relative to control
[4] = Metabolic stability in human microsomes assessed as parent compound remaining measured after 30 mins; assay type: ADME, Microsome; details: read-out: Stability
[5] = system: Tyrosine-protein kinase ABL1 (Homo sapiens), P00519 [T315I]; assay: Inhibition of ABL T315I mutant (unknown origin) 10 nM relative to control
[6] = target: Macrophage-stimulating protein receptor (Homo sapiens) (UniProt Q04912); assay: Inhibition of RON (unknown origin) at 10 nM relative to control
Sequence of Macrophage-stimulating protein receptor (Homo sapiens) (Q04912 25-304 limits assumed): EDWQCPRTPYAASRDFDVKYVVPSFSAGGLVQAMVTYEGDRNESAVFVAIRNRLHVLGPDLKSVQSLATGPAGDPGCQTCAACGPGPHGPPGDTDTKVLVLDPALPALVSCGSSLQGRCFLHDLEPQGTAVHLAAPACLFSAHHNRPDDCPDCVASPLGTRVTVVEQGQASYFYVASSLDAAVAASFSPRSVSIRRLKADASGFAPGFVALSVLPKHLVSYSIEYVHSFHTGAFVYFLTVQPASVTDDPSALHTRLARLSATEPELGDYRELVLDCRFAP
Sequence of Macrophage-stimulating protein receptor (Homo sapiens) (Q04912 310-1400 limits assumed): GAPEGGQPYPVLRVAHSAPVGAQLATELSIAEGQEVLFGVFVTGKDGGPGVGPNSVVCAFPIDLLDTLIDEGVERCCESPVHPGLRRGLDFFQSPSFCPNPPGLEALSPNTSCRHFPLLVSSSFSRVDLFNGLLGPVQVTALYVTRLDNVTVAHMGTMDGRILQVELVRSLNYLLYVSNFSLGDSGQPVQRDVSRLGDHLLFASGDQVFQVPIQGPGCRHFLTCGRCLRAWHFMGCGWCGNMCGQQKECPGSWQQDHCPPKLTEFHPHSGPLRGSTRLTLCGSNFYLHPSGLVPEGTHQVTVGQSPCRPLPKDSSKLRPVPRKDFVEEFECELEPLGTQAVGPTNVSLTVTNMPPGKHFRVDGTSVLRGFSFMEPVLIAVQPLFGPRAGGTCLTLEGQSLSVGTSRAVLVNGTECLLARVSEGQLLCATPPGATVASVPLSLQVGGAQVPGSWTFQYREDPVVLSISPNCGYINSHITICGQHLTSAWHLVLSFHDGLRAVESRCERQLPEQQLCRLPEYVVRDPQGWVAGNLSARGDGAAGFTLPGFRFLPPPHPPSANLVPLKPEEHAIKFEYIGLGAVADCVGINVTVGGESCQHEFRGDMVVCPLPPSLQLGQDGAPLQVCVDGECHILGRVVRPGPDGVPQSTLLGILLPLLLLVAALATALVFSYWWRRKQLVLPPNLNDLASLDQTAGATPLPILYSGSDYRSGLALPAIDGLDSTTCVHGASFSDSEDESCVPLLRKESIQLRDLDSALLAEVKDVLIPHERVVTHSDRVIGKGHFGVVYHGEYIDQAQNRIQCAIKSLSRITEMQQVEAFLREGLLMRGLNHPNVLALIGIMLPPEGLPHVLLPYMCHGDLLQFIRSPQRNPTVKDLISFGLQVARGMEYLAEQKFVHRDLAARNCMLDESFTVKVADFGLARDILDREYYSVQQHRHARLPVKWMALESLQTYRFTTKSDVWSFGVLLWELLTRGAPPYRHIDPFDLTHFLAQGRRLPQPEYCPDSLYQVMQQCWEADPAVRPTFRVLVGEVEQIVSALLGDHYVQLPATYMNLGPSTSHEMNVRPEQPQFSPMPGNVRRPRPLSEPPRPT

[7] = target: Proto-oncogene tyrosine-protein kinase receptor Ret (Homo sapiens) (UniProt P07949); assay: Inhibition of RET (unknown origin) at 100 nM relative to control
[8] = target: Vascular endothelial growth factor receptor 1 (Homo sapiens) (UniProt P17948); assay: Inhibition of VEGFR1 (unknown origin) at 100 nM relative to control
[9] = Metabolic stability in mouse microsomes assessed as parent compound remaining measured after 30 mins; assay type: ADME, Microsome; details: read-out: Stability
[10] = target: Receptor-type tyrosine-protein kinase FLT3 (Homo sapiens) (UniProt P36888); assay: Inhibition of FLT3 (unknown origin) at 100 nM relative to control
[11] = target: Macrophage-stimulating protein receptor (Homo sapiens) (UniProt Q04912); assay: Inhibition of RON (unknown origin) at 100 nM relative to control
[12] = target: Tyrosine-protein kinase receptor UFO (Homo sapiens) (UniProt P30530); assay: Inhibition of AXL (unknown origin) at 100 nM relative to control
[13] = target: Angiopoietin-1 receptor (Homo sapiens) (UniProt Q02763); assay: Inhibition of human TIE2 at 10 nM relative to control
[14] = target: Mast/stem cell growth factor receptor Kit (Homo sapiens) (UniProt P10721); assay: Inhibition of C-kit (unknown origin) at 100 nM relative to control
Sequence of Mast/stem cell growth factor receptor Kit (Homo sapiens) (P10721 whole entry): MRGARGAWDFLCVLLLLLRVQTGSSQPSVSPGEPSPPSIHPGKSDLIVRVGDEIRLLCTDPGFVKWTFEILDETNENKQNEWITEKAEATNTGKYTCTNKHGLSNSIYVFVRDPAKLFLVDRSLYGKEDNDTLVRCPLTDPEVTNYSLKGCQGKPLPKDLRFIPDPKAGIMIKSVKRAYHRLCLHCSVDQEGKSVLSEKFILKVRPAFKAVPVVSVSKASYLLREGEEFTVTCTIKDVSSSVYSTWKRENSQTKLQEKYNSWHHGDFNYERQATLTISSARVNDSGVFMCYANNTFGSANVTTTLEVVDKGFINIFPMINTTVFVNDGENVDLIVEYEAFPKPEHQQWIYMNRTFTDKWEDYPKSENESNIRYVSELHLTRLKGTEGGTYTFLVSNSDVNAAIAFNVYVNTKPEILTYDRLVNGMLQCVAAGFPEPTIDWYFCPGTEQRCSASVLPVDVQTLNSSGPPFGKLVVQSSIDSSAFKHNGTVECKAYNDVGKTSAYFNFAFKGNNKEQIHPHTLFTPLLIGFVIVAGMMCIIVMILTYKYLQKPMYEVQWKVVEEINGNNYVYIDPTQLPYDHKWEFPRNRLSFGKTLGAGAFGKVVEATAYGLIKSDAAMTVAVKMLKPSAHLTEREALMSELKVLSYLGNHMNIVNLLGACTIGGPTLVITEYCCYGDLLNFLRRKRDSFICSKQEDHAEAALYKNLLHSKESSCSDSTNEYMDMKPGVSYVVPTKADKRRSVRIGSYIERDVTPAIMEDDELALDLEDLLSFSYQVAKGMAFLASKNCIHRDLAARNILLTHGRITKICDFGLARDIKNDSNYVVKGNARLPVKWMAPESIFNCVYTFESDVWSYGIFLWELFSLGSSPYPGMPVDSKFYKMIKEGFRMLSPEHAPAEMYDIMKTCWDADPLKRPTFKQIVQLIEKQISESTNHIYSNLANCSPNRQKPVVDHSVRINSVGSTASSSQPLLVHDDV

[15] = target: Vascular endothelial growth factor receptor 3 (Homo sapiens) (UniProt P35916); assay: Inhibition of VEGFR3 (unknown origin) at 10 nM relative to control
[16] = target: Platelet-derived growth factor receptor beta (Homo sapiens) (UniProt P09619); assay: Inhibition of human PDGFRbeta at 100 nM relative to control
[17] = target: CYP2C9 (Homo sapiens, UniProt P11712); assay: Inhibition of CYP2C9 (unknown origin) at 10 uM relative to control; assay type: ADME
[18] = target: T1, Hepatocyte growth factor receptor; assay: Inhibition of human c-MET at 10 nM relative to control
[19] = target: Proto-oncogene tyrosine-protein kinase Src (Homo sapiens) (UniProt P12931); assay: Inhibition of c-SRC (unknown origin) at 10 nM relative to control
[20] = system: MKN-45; assay: Antitumor activity against human MKN45 cells xenografted in po dosed nude mouse assessed as tumor growth inhibition administered once daily for 14 days; assay type: functional, organism-based
[21] = target: Proto-oncogene tyrosine-protein kinase Src (Homo sapiens) (UniProt P12931); assay: Inhibition of c-SRC (unknown origin) at 100 nM relative to control
[22] = target: Fibroblast growth factor receptor 1 (Homo sapiens) (UniProt P11362); assay: Inhibition of FGFR1 (unknown origin) at 10 nM relative to control
[23] = target: Fibroblast growth factor receptor 1 (Homo sapiens) (UniProt P11362); assay: Inhibition of FGFR1 (unknown origin) at 100 nM relative to control
[24] = target: Vascular endothelial growth factor receptor 3 (Homo sapiens) (UniProt P35916); assay: Inhibition of VEGFR3 (unknown origin) at 100 nM relative to control
[25] = system: Tyrosine-protein kinase ABL1 (Homo sapiens), P00519 [T315I]; assay: Inhibition of ABL T315I mutant (unknown origin) 100 nM relative to control
[26] = target: Tyrosine-protein kinase Lck (Homo sapiens) (UniProt P06239); assay: Inhibition of LCK (unknown origin) at 100 nM relative to control
[27] = target: Platelet-derived growth factor receptor alpha (Homo sapiens) (UniProt P16234); assay: Inhibition of PDGFRalpha (unknown origin) at 10 nM relative to control
Sequence of Platelet-derived growth factor receptor alpha (Homo sapiens) (P16234 whole entry): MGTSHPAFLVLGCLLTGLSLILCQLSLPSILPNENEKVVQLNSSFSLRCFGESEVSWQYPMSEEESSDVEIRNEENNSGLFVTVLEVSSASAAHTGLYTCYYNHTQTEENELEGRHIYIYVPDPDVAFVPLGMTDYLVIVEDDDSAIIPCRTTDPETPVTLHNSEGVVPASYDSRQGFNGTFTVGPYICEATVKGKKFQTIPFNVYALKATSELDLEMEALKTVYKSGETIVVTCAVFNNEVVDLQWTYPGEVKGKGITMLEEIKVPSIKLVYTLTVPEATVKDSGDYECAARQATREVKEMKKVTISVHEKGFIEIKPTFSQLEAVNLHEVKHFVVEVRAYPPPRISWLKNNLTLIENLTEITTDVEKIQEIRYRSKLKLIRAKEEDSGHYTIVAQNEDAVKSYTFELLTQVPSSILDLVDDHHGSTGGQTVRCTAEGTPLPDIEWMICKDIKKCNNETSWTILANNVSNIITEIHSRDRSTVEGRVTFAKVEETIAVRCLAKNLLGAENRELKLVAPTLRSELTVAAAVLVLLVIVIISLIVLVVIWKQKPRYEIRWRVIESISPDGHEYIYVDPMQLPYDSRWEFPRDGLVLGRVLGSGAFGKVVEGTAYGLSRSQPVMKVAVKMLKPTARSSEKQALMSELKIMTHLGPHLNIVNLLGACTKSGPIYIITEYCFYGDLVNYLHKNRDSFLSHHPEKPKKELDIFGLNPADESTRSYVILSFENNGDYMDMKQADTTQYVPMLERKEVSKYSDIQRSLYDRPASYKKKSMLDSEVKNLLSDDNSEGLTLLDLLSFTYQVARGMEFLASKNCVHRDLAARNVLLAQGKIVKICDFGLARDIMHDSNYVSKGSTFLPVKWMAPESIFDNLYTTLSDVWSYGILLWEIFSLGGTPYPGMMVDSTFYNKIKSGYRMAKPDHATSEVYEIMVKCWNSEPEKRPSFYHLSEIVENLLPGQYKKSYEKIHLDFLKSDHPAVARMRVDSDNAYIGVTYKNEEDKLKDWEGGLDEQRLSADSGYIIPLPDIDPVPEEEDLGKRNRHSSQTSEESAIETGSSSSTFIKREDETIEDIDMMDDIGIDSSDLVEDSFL

[28] = target: Macrophage colony-stimulating factor 1 receptor (Homo sapiens) (UniProt P07333); assay: Inhibition of CSF1R (unknown origin) at 100 nM relative to control
[29] = target: CYP3A4 (Homo sapiens, UniProt P08684); assay: Inhibition of CYP3A4 (unknown origin) at 10 uM relative to control; assay type: ADME
[30] = target: Insulin-like growth factor 1 receptor (Homo sapiens) (UniProt P08069); assay: Inhibition of IGF1R (unknown origin) at 10 nM relative to control
[31] = Metabolic stability in rat microsomes assessed as parent compound remaining measured after 30 mins; assay type: ADME, Microsome; details: read-out: Stability
[32] = target: Platelet-derived growth factor receptor alpha (Homo sapiens) (UniProt P16234); assay: Inhibition of PDGFRalpha (unknown origin) at 100 nM relative to control
[33] = target: Vascular endothelial growth factor receptor 2 (Homo sapiens) (UniProt P35968); assay: Inhibition of human VEGFR2 at 10 nM relative to control
[34] = target: Mast/stem cell growth factor receptor Kit (Homo sapiens) (UniProt P10721); assay: Inhibition of C-kit (unknown origin) at 10 nM relative to control
[35] = target: CYP2D6 (Homo sapiens, UniProt P10635); assay: Inhibition of CYP2D6 (unknown origin) at 10 uM relative to control; assay type: ADME
[36] = system: MKN-45; assay: Antitumor activity against human MKN45 cells xenografted in nude mouse assessed as tumor growth inhibition at 20 mg/kg, po administered once daily for 14 days relative to control; assay type: functional; details: MKN-45, po, 336 h, read-out: TGI
[37] = target: CYP2C19 (Homo sapiens, UniProt P33261); assay: Inhibition of CYP2C19 (unknown origin) at 10 uM relative to control; assay type: ADME
[38] = target: Fibroblast growth factor receptor 2 (Homo sapiens) (UniProt P21802); assay: Inhibition of FGFR2 (unknown origin) at 100 nM relative to control
[39] = target: ALK tyrosine kinase receptor (Homo sapiens) (UniProt Q9UM73); assay: Inhibition of ALK (unknown origin) at 10 nM relative to control
[40] = target: Macrophage colony-stimulating factor 1 receptor (Homo sapiens) (UniProt P07333); assay: Inhibition of CSF1R (unknown origin) at 10 nM relative to control
[41] = target: T1, Hepatocyte growth factor receptor; assay: Inhibition of human c-MET at 100 nM relative to control
[42] = target: Tyrosine-protein kinase receptor UFO (Homo sapiens) (UniProt P30530); assay: Inhibition of AXL (unknown origin) at 10 nM relative to control
[43] = target: CYP1A2 (Homo sapiens, UniProt P05177); assay: Inhibition of CYP1A2 (unknown origin) at 10 uM relative to control; assay type: ADME

Q: Which IC50 [1] does the source give for `C[C@@H](Oc1cncc(-c2cnn(C3CCN(C)CC3)c2)c1)c1c(Cl)ccc(F)c1Cl` here?
A: 227 nM

Q: For `C[C@@H](Oc1cncc(-c2cnn(C3CCN(CC(N)=O)CC3)c2)c1)c1c(Cl)ccc(F)c1Cl`, which IC50 [1] is on record?
A: 113 nM

Q: Which IC50 [1] does the source give for `C[C@@H](Oc1ccc2ncc(-c3cnn(C)c3)nc2c1)c1c(Cl)ccc(F)c1Cl` here?
A: 735 nM

Q: For `C[C@@H](Oc1cncc(-c2cnn(C3CCN(S(C)(=O)=O)CC3)c2)c1)c1c(Cl)ccc(F)c1Cl`, which IC50 [1] is on record?
A: 243 nM

Q: With `CC(=O)N1CCC(n2cc(-c3cncc(O[C@H](C)c4c(Cl)ccc(F)c4Cl)c3)cn2)CC1` as the compound, how does the IC50 [1] read?
A: 117 nM

Q: For `C[C@@H](Oc1ccc2ncc(-c3cnn(CCO)c3)nc2c1)c1c(Cl)ccc(F)c1Cl`, which IC50 [1] is on record?
A: 196 nM

Q: With `C[C@H](Oc1cncc(-c2cnn(C3CCNCC3)c2)c1)c1c(Cl)ccc(F)c1Cl` as the compound, how does the IC50 [2] read?
A: 92 nM

Q: What about the IC50 [1] of the same compound?
A: 797 nM

Q: For `CC(C)N1CCC(n2cc(-c3cncc(O[C@H](C)c4c(Cl)ccc(F)c4Cl)c3)cn2)CC1`, which IC50 [1] is on record?
A: 132 nM

Q: With `C[C@@H](Oc1cncc(-c2cnn(C3CCNCC3)c2)c1)c1c(Cl)ccc(F)c1Cl` as the compound, how does the inhibition [3] read?
A: 33%

Q: What about the remaining at 0.5 h [4] of the same compound?
A: 94%

Q: What about the inhibition [5] of the same compound?
A: 43%

Q: And the inhibition [6]?
A: -9%

Q: And the inhibition [7]?
A: -3%

Q: And the inhibition [8]?
A: -1%

Q: What about the remaining at 0.5 h [9] of the same compound?
A: 96%

Q: And the inhibition [10]?
A: 8%

Q: And the inhibition [11]?
A: 49%

Q: What about the inhibition [12] of the same compound?
A: 75%

Q: What about the inhibition [13] of the same compound?
A: 2%

Q: And the inhibition [14]?
A: 4%

Q: And the inhibition [15]?
A: -5%

Q: What about the inhibition [16] of the same compound?
A: -10%

Q: And the inhibition at 10 µM [17]?
A: 79%

Q: What about the inhibition [18] of the same compound?
A: 80%

Q: What about the inhibition [19] of the same compound?
A: -10%

Q: And the TGI [20]?
A: Dose-dependent effect

Q: And the inhibition [21]?
A: -7%

Q: What about the inhibition [22] of the same compound?
A: -7%

Q: And the inhibition [23]?
A: -5%

Q: And the inhibition [24]?
A: 0%

Q: What about the IC50 [2] of the same compound?
A: 6 nM

Q: And the inhibition [25]?
A: 63%

Q: And the IC50 [1]?
A: 175 nM

Q: What about the inhibition [26] of the same compound?
A: 47%

Q: And the inhibition [27]?
A: 3%

Q: And the inhibition [28]?
A: 67%

Q: And the inhibition at 10 µM [29]?
A: 76%

Q: And the inhibition [30]?
A: -4%

Q: What about the remaining at 0.5 h [31] of the same compound?
A: 85%

Q: What about the inhibition [32] of the same compound?
A: -4%

Q: What about the inhibition [33] of the same compound?
A: -4%

Q: And the inhibition [34]?
A: 0%

Q: What about the inhibition at 10 µM [35] of the same compound?
A: 28%

Q: What about the inhibition in vivo at 20 mg/kg [36] of the same compound?
A: 48%

Q: What about the inhibition at 10 µM [37] of the same compound?
A: 63%

Q: What about the inhibition [38] of the same compound?
A: 0%

Q: And the inhibition [39]?
A: 31%

Q: What about the inhibition [40] of the same compound?
A: 15%

Q: What about the inhibition [41] of the same compound?
A: 100%

Q: And the inhibition [42]?
A: 17%

Q: What about the inhibition at 10 µM [43] of the same compound?
A: 55%

Q: With `CC(=O)N1CCC(n2cc(-c3cnc(F)c(O[C@H](C)c4c(Cl)ccc(F)c4Cl)c3)cn2)CC1` as the compound, how does the IC50 [1] read?
A: 77 nM

Q: For `C[C@@H](Oc1cc(-c2cnn(C3CCNCC3)c2)cnc1N)c1c(Cl)ccc(F)c1Cl` [CRIZOTINIB], which IC50 [1] is on record?
A: 9.1 to 38 nM

Q: What about the inhibition in vivo at 20 mg/kg [36] of the same compound?
A: 29%

Q: For `C[C@@H](Oc1cncc(-c2cnn(C3CCN(CC4CC4)CC3)c2)c1)c1c(Cl)ccc(F)c1Cl`, which IC50 [1] is on record?
A: 306 nM

Q: For `C[C@@H](Oc1cc(-c2cnn(C3CCNCC3)c2)cnc1F)c1c(Cl)ccc(F)c1Cl`, which IC50 [1] is on record?
A: 114 nM

Q: For `CC(=O)OCCn1cc(-c2cnc3ccc(O[C@H](C)c4c(Cl)ccc(F)c4Cl)cc3n2)cn1`, which IC50 [1] is on record?
A: 252 nM
